The text below walks through data of patent US20240293493A1, “COMPOSITION FOR ALLEVIATING, TREATING, OR PREVENTING MUSCULAR DISEASES, OR IMPROVING MUSCULAR FUNCTIONS, CONTAINING KOREAN MINT EXTRACT OR TILIANIN AS ACTIVE INGREDIENT” (AAT COSTECH CO., LTD., priority 2020, published 2024).

The subject of one assay is atrogin-1. Briefly: atrogin-1 mRNA expression in TNF-α-treated L6 myotubes (RT-PCR). The assay is classed as cell-based. As to conditions: TNF-α treatment, 20 µM or 40 µM tilianin. The method, then: (§1) L6 myoblasts (ATCC), which are muscle cells, were added to a 6-well plate with DMEM (Hyclone) containing 10% FBS (Hyclone) at 1×10^5 cells/mL. When the cell density reached about 80-85%, the medium remaining in the well was removed and differentiation into myotubes was induced by treating the cells with DMEM (Hyclone) containing 2% HS (Hyclone). The differentiation was performed for a total of 6 days while replacing the medium with a fresh one every 2 days. After the differentiation, […], which was dissolved in DMEM (Hyclone) containing 50 ng/ml tumor necrosis factor alpha (TNF-α; PeproTech, Rocky Hills, NJ, USA). 12 hours later, total RNA was isolated using a TRIzol reagent (Takara, Otsu, Japan). The isolated total RNA was quantified using NanoDrop 1000 (Thermo Fisher Scientific Inc., Waltham, MA, USA). cDNA was synthesized from 16 μL of the quantified RNAs using a reverse transcriptase premix (ELPIS-Biotech) and a PCR machine (Gene Amp PCR System 2700; Applied Biosystems, Foster City, CA, USA) under the condition of 42° C. for 55 minutes and 70° C. for 15 minutes. PCR was performed by repeating 30 cycles of 95° C. for 30 seconds, 60° C. for 1 minute and 72° C. for 1 minute using 1 μL of cDNA from 16 μL of the produced cDNA, specific primers described below (Bioneer, Daejeon, Korea) and a PCR premix (ELPIS-Biotech). […]

Assay [1] relates to muscle atrophy-induced mice. Briefly: Tibialis anterior muscle weight in muscle atrophy-induced mice. The assay is classed as in vivo, mice (C57BL/6J). As to conditions: tilianin 20 mg/kg orally every day, compared with muscle atrophy group. The method, then:
(§2) 7-week-old male mice (C57BL/6J; DBL, Korea) were purchased as experimental animals. The breeding environment was maintained at a temperature of 23±2° C. and a relative humidity of 55±10%. Before the start of the experiment, a total of 20 mice were randomly divided into groups of 5 mice each. After a week of acclimation, anesthesia was induced by intraperitoneal injection of 325 mg/kg tribromoethanol (Sigma-Aldrich). After the anesthesia, the right hindlimb gastrocnemius muscle and the right sole of the mice in a muscle atrophy group and a sample administration group were stapled using a skin stapler (Unidus, Chungcheongbuk-do, Korea) to damage the muscle and keep the right hindlimb from moving. This state was maintained for a week. […]
(§3) After inducing muscle atrophy in the same manner as in Example 12-1, tilianin was orally administered every day at a concentration of 20 mg/kg. Then, muscular strength and muscle weight were measured in the same manner as in Example 12-2 and Example 12-3.

Another assay relates to MuRF1. Briefly: MuRF1 mRNA expression in TNF-α-treated L6 myotubes (RT-PCR). The assay is classed as cell-based. The following applies: TNF-α treatment, 20 µM or 40 µM tilianin. As for the experimental part:
as §1

Assay [2] concerns muscle atrophy-induced mice. Briefly: Muscular strength in mice with skin-stapler immobilization muscle atrophy. The following applies: tilianin 20 mg/kg orally every day, compared with muscle atrophy group. The assay is classed as in vivo, mice (C57BL/6J). The method, then: as §2
After the end of the oral administration period, the muscular strength of the mice was measured using a muscular strength meter (Panlab, Barcelona, Spain). […]
as §3

A further assay has as its system mTOR. Nature of the assay: mTOR activity in L6 myotubes by mTOR sandwich ELISA kit. The assay is classed as cell-based. As to conditions: 20 μM or 40 μM tilianin, vs control group. As for the experimental part:
It is known that the activation of the mTOR protein by phosphorylation can induce muscle protein synthesis in muscle cells by the PI3K/Akt signaling pathway and can activate proteins involved in increase of muscle mass. Therefore, in order to investigate the activity of inducing muscle formation of Korean mint, the activity of mTOR was investigated using a mTOR sandwich ELISA kit (Cell Signaling Technology, Beverly, MA, USA).
L6 myoblasts (ATCC; Manassas, VA, USA) were seeded on a 6-well plate at 1×10^5 cells/well with Dulbecco's modified Eagle's medium (DMEM; Hyclone) containing 10% fetal bovine serum (FBS; Hyclone, Logan, UT, USA) and then cultured for 24 hours. […]
(Hyclone) containing 2% horse serum (HS; Hyclone). […] Proteins in the obtained cell lysate were quantified at a concentration of 1 mg/mL by Bradford assay (Bio-Rad Laboratories Inc., Hercules, CA, USA). […] 2 minutes later, the mTOR level in the myotubes treated with the extract of Korean mint leaf was measured by measuring absorbance at 450 nm. […] The difference between groups was analyzed through Duncan's multiple range test by one-way analysis of variance using the SPSS25.0 statistical package (SPSS Inc., Chicago, IL, USA). […]
mTOR activity was measured in the same manner as in Example 3 except that the extracts of the aerial part of Korean mint of Example 1-2 to Example 1-8 were treated at 80 μg/mL. […]

In the case of `COc1ccc(-c2cc(=O)c3c(O)cc(O[C@@H]4O[C@H](CO)[C@@H](O)[C@H](O)[C@H]4O)cc3o2)cc1` [tilianin], the “mRNA of atrogin-1 (FIG. 4)” value with atrogin-1 is recorded as “decreased”. Besides, the “increase of muscle weight” value in assay [1] was found to be 15.2%. Also, in the assay on MuRF1, the “mRNA of MuRF1 (FIG. 4)” value is reported as “decreased”. Further, the “increase of muscular strength” value in assay [2] is recorded as 30.3%. Further, the “mTOR activity (FIG. 3)” value with mTOR is listed as “significantly increased”.
